The values that follow come from ChEMBL document CHEMBL1800005, “Synthesis and biological activity of a series of tetrasubstituted-imidazoles as P2X(7) antagonists” (Bioorg Med Chem Lett, 2010).

Data set [1] concerns the target T1, P2X purinoceptor 7 (Homo sapiens, UniProt Q99572).
T1 sequence (Q99572 whole entry): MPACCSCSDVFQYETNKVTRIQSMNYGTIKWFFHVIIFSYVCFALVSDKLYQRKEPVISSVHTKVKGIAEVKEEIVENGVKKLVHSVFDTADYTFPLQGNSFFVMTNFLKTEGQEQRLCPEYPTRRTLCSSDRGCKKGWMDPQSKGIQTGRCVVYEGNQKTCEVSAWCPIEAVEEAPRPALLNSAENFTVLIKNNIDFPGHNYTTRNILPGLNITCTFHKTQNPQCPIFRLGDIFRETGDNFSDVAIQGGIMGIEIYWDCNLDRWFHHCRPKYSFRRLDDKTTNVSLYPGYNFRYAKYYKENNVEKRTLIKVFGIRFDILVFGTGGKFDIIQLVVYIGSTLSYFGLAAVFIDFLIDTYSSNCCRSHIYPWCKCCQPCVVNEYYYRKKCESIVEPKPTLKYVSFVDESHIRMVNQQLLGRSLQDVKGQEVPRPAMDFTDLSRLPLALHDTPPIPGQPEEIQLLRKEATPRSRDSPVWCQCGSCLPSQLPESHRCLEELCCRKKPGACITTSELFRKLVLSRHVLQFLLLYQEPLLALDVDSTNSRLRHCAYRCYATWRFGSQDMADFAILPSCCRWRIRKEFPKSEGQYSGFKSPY
The experiment in a line: Antagonist activity at human recombinant P2X7 receptor expressed in HEK293 cells by ethidium bromide […] assay. The format is functional, cell-based.

Data set [2] concerns the target T2, P2X purinoceptor 7 (Rattus norvegicus, UniProt Q64663).
T2 sequence (Q64663 whole entry): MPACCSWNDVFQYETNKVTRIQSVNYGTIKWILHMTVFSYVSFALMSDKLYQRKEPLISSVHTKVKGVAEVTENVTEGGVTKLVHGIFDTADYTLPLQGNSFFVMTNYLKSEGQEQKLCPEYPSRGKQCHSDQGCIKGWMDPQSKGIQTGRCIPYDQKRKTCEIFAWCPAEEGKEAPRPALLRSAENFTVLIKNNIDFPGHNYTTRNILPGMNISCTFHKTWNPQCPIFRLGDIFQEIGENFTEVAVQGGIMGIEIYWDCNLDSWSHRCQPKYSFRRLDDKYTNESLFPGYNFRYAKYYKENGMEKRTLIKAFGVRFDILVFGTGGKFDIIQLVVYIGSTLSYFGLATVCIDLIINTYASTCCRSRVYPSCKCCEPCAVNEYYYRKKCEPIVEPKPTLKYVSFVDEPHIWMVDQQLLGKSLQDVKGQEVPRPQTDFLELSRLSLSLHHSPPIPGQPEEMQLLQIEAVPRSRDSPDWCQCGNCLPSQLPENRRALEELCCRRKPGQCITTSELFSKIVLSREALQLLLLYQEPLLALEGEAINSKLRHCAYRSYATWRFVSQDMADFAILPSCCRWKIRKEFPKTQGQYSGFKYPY
The experiment in a line: Antagonist activity at rat recombinant P2X7 receptor expressed in HEK293 cells by ethidium bromide […] assay. The format is functional, cell-based.

Data set [3] can be described thus: Solubility of compound in fed state simulated intestinal fluid at pH 5 after 1 hr. In kind it is physicochemical.
Data set [4] in a line: Solubility of compound in fasted state simulated intestinal fluid at pH 6.5 after 1 hr. The format is physicochemical.
Data set [5] in a line: Solubility of compound in simulated gastric fluid at pH 1.2 after 1 hr. The format is physicochemical.
For a further data set, the target named is Albumin (Homo sapiens, UniProt P02768). The experiment in a line: Protein binding in human serum albumin. The format is ADME. The settings on record: read-out: PB.
A further data set addresses Cytochrome P450 3A4 (Homo sapiens, UniProt P08684). The experiment in a line: Inhibition of CYP3A4 using diethoxyflourescein as a substrate. In kind it is ADME.
The target of a further data set is T3, Cytochrome P450 1A2 (Homo sapiens, UniProt P05177).
T3 sequence (P05177 whole entry): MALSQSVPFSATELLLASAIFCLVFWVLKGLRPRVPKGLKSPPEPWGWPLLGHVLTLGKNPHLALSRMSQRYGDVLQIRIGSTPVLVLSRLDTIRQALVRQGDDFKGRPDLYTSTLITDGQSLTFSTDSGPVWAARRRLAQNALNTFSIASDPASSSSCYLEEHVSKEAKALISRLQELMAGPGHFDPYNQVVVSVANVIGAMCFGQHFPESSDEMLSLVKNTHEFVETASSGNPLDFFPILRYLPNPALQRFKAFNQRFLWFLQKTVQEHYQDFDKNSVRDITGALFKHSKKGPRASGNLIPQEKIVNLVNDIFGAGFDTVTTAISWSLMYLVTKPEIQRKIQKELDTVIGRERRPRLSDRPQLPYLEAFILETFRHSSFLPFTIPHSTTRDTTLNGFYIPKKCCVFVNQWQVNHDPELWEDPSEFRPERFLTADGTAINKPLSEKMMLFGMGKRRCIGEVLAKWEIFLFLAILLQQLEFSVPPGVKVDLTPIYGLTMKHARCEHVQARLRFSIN
The experiment in a line: Inhibition of CYP1A2. The format is ADME.

For another data set, the target named is Cytochrome P450 2C9 (Homo sapiens, UniProt P11712). The experiment in a line: Inhibition of CYP2C9. In kind it is ADME.
The next data set deals with Cytochrome P450 2C19 (Homo sapiens, UniProt P33261). The experiment in a line: Inhibition of CYP2C19. The format is ADME.
Another data set addresses Cytochrome P450 2D6 (Homo sapiens, UniProt P10635). The experiment in a line: Inhibition of CYP2D6. The format is ADME.
Data set [6] can be described thus: Dissociation constant, pKa of the compound. The format is physicochemical.
Data set [7] can be described thus: Cmax in rat at 3 mg/kg, po. The format is ADME, organism-based. On the set-up: dose 3 mg/kg, route oral. The settings on record: in vivo.
In the next data set the test system is Rattus norvegicus. The experiment in a line: Dose normalized AUC (0 to 6 hrs) in rat at 3 mg/kg, po. The settings on record: in vivo. Details: dose 3 mg/kg, route oral. The format is ADME, organism-based.
The nature of data set [8]: Tmax in rat at 3 mg/kg, po. The format is ADME, organism-based. Details: dose 3 mg/kg, route oral. Particulars: in vivo.
A short description of data set [9]: Solubility of the compound in water after 1 hr. The format is physicochemical.

Each structure is given as a SMILES string. In brackets after ≈: the same amount, converted by molar mass.

Chain of Cytochrome P450 2C9 (P11712 whole entry): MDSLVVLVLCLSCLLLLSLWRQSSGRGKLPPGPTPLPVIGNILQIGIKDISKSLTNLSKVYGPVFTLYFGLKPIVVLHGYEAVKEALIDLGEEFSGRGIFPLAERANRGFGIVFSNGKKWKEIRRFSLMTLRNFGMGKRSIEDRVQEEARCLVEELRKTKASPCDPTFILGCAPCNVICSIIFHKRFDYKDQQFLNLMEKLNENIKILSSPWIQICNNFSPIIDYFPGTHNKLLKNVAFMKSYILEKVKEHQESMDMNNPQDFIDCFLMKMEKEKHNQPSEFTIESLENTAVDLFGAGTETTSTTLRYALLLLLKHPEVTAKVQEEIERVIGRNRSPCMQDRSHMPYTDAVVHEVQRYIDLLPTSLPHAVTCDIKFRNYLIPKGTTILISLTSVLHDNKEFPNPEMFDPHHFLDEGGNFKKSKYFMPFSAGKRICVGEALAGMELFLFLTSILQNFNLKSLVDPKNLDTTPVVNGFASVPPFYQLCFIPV
Chain of Albumin (P02768 whole entry): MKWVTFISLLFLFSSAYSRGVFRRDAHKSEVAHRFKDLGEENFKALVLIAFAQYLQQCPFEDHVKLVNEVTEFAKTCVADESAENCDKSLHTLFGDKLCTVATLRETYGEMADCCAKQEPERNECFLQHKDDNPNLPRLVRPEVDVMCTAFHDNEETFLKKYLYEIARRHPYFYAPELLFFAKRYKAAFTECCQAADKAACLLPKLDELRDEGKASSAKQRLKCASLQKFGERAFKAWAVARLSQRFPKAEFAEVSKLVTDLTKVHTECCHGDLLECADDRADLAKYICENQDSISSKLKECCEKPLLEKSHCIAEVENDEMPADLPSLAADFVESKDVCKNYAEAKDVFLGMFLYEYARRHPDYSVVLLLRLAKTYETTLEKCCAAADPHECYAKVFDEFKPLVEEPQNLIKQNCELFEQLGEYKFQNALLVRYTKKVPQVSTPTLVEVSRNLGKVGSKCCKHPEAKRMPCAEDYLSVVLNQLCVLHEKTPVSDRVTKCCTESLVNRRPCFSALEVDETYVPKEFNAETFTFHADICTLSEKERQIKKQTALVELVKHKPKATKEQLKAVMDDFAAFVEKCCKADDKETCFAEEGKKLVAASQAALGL
Chain of Cytochrome P450 2C19 (P33261 whole entry): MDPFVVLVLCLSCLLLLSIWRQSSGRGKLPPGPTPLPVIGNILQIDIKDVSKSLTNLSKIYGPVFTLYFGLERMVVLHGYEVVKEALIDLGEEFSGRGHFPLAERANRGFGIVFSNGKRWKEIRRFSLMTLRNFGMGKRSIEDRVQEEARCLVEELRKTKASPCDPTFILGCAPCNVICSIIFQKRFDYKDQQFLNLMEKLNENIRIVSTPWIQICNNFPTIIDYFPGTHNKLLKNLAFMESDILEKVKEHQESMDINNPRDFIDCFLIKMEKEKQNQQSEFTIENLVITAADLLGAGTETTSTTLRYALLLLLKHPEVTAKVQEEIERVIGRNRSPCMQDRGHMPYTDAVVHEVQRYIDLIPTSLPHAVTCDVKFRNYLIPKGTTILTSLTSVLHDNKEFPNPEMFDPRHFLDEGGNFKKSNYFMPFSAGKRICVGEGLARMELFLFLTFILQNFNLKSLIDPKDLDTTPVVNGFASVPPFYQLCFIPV
Chain of Cytochrome P450 2D6 (P10635 whole entry): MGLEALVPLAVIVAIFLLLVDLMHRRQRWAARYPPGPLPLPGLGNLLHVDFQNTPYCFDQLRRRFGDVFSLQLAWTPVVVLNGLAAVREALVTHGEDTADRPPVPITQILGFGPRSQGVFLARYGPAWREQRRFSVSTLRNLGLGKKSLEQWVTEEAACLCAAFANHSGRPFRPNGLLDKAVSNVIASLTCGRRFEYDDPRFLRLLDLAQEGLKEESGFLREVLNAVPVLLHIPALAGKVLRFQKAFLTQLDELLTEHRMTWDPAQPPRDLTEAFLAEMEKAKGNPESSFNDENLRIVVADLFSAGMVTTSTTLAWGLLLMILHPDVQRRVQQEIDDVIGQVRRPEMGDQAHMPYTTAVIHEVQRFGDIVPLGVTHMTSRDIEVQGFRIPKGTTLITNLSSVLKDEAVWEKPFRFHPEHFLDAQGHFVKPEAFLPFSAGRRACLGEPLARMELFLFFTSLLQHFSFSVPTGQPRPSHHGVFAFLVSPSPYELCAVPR
Chain of Cytochrome P450 3A4 (P08684 whole entry): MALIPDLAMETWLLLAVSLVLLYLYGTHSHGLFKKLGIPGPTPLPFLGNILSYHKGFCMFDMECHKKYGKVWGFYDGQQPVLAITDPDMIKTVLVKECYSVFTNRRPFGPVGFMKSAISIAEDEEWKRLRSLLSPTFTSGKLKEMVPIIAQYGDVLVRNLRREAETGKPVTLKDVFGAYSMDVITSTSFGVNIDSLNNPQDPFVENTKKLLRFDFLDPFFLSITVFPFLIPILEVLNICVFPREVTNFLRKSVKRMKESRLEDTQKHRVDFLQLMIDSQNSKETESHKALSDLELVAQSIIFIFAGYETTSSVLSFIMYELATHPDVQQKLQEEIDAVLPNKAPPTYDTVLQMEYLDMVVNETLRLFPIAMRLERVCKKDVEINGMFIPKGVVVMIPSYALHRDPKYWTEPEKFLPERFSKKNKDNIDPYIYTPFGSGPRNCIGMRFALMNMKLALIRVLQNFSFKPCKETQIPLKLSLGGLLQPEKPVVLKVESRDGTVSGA

As to `Cc1nc(-c2ccccc2)n(C)c1CC(=O)NCc1ccc(F)cc1Cl`, the IC50 – broadly, the concentration that inhibits the measured activity by half – at P2X purinoceptor 7 [1] is 0.0398 µM; on P2X purinoceptor 7 [2], 0.251 µM.

`Cc1nn(-c2ccccc2)c(C)c1CC(=O)NCc1ccc(F)cc1Cl`: the solubility – broadly, the concentration that dissolves in the medium under given conditions – at 1 h in data set [3] is 0.1 mg/mL (≈ 269 µM); in data set [4], 0.12 mg/mL (≈ 323 µM); in [5], 0.41 mg/mL (≈ 1100 µM).

As to `Cc1nc(-c2ccc(F)cc2F)n(C)c1CC(=O)NCc1ccc(F)cc1Cl` [listing 1 of 2 here], the fraction unbound on Albumin amounted to 0.09. Besides, the IC50 against Cytochrome P450 3A4 is 5.5 µM; at Cytochrome P450 1A2 it was > 10 µM; at Cytochrome P450 2C9, > 10 µM; against Cytochrome P450 2C19, > 10 µM; at Cytochrome P450 2D6, > 10 µM. Besides, the pKa – broadly, the negative logarithm of the acid dissociation constant – in [6] turned out to be 6.47.

Turning to `CCn1c(-c2ccccc2)nc(C)c1CC(=O)NCc1ccc(F)cc1Cl`, the IC50 at P2X purinoceptor 7 [1] is 0.1 µM; at P2X purinoceptor 7 [2], 0.158 µM.

Turning to `Cc1nc(-c2ccccc2)n(C)c1CC(=O)NCc1cccc(Cl)c1C`, the IC50 on P2X purinoceptor 7 [1] is 0.0501 µM; at P2X purinoceptor 7 [2], 1.58 µM.

In the case of `CCn1c(-c2ccccc2)nc(C)c1CC(=O)NCc1cccc(Cl)c1C`, the IC50 is 0.0501 µM on P2X purinoceptor 7 [1] and 0.631 µM at P2X purinoceptor 7 [2].

Regarding `Cc1cccc(Cl)c1CNC(=O)Cc1c(C)nc(-c2ccccc2)n1C`, the IC50 is 0.0501 µM on P2X purinoceptor 7 [1] and 3.16 µM at P2X purinoceptor 7 [2].

Take `CCn1c(-c2ccccc2)nc(C)c1CC(=O)NCc1c(C)cccc1Cl`: the IC50 was 0.0501 µM on P2X purinoceptor 7 [1] and 0.501 µM at P2X purinoceptor 7 [2].

As to `Cc1nc(-c2ccccc2)n(C)c1CC(=O)NCc1ccc(F)c(F)c1F`, the IC50 on P2X purinoceptor 7 [1] was 0.1 µM; at P2X purinoceptor 7 [2] it was 5.01 µM.

As to `CCn1c(-c2ccccc2)nc(C)c1CC(=O)NCc1ccc(F)c(F)c1F`, the IC50 is 0.158 µM on P2X purinoceptor 7 [1] and 3.98 µM on P2X purinoceptor 7 [2].

On to `Cc1nc(-c2ccc(F)cc2F)n(C)c1CC(=O)NCc1ccc(F)cc1Cl` [listing 2 of 2 here], for which the IC50 was 0.0398 µM on P2X purinoceptor 7 [1] and 0.316 µM on P2X purinoceptor 7 [2]. For the same compound, the solubility at 1 h was 0.9 mg/mL (≈ 2210 µM) in data set [3], 0.37 mg/mL (≈ 907 µM) in data set [4], > 1 mg/mL in [5] and 0.92 mg/mL (≈ 2260 µM) in data set [9]. Also, the concentration in data set [7] peaked (Cmax) at 0.43 µM. The compound further displayed an AUC/dose in the data set on Rattus norvegicus of 6.8 kg·min/L. For the same compound, the Tmax – broadly, the time from dosing to the highest level – in data set [8] is 30 min.

Regarding `CCn1c(-c2ccc(F)cc2F)nc(C)c1CC(=O)NCc1ccc(F)cc1Cl`, the IC50 on P2X purinoceptor 7 [1] was 0.1 µM; at P2X purinoceptor 7 [2], 0.158 µM.

As to `Cc1nc(-c2ccc(F)cc2F)n(C)c1CC(=O)NCc1cccc(Cl)c1C`, the values for the IC50 at P2X purinoceptor 7 [1] and on P2X purinoceptor 7 [2] were 0.0316 µM and 0.631 µM, respectively.

Turning to `CCn1c(-c2ccc(F)cc2F)nc(C)c1CC(=O)NCc1cccc(Cl)c1C`, the IC50 on P2X purinoceptor 7 [1] is 0.0398 µM; at P2X purinoceptor 7 [2], 0.398 µM.

With `CCn1c(-c2ccc(F)cc2F)nc(C)c1CC(=O)NCc1c(C)cccc1Cl`, the IC50 on P2X purinoceptor 7 [1] is 0.0501 µM; at P2X purinoceptor 7 [2], 0.631 µM.

`Cc1nc(-c2ccc(F)cc2F)n(C)c1CC(=O)NCc1ccc(F)c(F)c1F`: the IC50 on P2X purinoceptor 7 [1] was 0.0631 µM; at P2X purinoceptor 7 [2] it was > 10 µM.

On to `CCn1c(-c2ccc(F)cc2F)nc(C)c1CC(=O)NCc1ccc(F)c(F)c1F`, for which the IC50 at P2X purinoceptor 7 [1] was 0.126 µM; at P2X purinoceptor 7 [2] it was 1 µM.

Take `Cn1c(CC(=O)NCc2ccc(F)cc2Cl)cnc1-c1ccc(F)cc1F`: the IC50 was 0.2 µM at P2X purinoceptor 7 [1] and 0.251 µM on P2X purinoceptor 7 [2].

For `CCn1c(CC(=O)NCc2ccc(F)cc2Cl)cnc1-c1ccc(F)cc1F`, the results for the IC50 at P2X purinoceptor 7 [1] and at P2X purinoceptor 7 [2] were 0.501 µM and 0.398 µM, respectively.

For `Cc1c(Cl)cccc1CNC(=O)Cc1cnc(-c2ccc(F)cc2F)n1C`, the IC50 is 0.0631 µM at P2X purinoceptor 7 [1] and 0.631 µM at P2X purinoceptor 7 [2].
